Measured values published in patent US20260232750A1, “COMPOSITION AND METHOD FOR INHIBITING ADVANCED GLYCATION END PRODUCTS” (ACCESS BUSINESS GROUP INTERNATIONAL LLC, priority 2022, published 2026).
Values joined by “and” are separate entries in the source; they are usually repeats but may differ in a detail not shown here. Identical values can stand only once. “Also recorded” adds a separate entry of the source. Like-named read-outs stand apart in the source and are kept apart here.

What was measured:
[1] = test system: fluorescent AGEs (BSA-fructose/glucose system); experiment: Fluorescent AGEs formation in a BSA-fructose/glucose system; type: biochemical, bovine; settings: read-out: IC50, AGE formation
Protocol: The formation of total fluorescent AGEs in glycated samples was assessed by determining their fluorescent intensities at an excitation/emission wavelength of 350/450 nm, as previously described. Glycated protein was prepared in vitro by incubating BSA in the presence of D-glucose (GLC) and D-fructose (FRC). The DOF extract and specific standards were dissolved in DMSO:water (1:4). BSA (4 mg/ml, 100 μl) was preliminary mixed with 50 μl of GLC (0.5 M) and 50 μl of FRC (0.5 M) in 20 mM sodium phosphate buffer (pH 7.4), and then 100 μl samples were added in the 96-well plate and incubated at 37.5° C. for 7 days. All solutions were prepared under sterile conditions and filtered using a 0.22-μm syringe before incubation. The assay was performed in triplicate, and AG was used as a positive control.

[2] = FRAP total antioxidant capacity assay; type: biochemical
Protocol: Fast colourimetric methods were slightly modified for the in vitro assessment of DPPH· scavenging, ABTS·+ decolourisation capacity, and total antioxidant capacity of FRAP. The stock solutions of derivatisation reagents were diluted as follows before measurement: DPPH was diluted with absolute ethanol until the absorbance was 0.8±0.05 at λ=517 nm. ABTS working solution was prepared with phosphate buffer (0.2 M, pH 7.4) to display absorbance of 0.8±0.05 at λ=729 nm, based on a previous study. The FRAP solution was prepared according to the instructions of the FRAP kit. Absorbances were measured using an automatic microplate reader (Molecular Group Ltd., USA), and all analyses were performed using 96-well plates. All measurements were performed in triplicate, and Trolox was used as a positive control.
For total antioxidant capacity, 180 μl of FRAP solution was mixed with 5 μl of sample solution, and the absorbance was measured after 5 min at […] with PBS as the negative control. FeSO4 solutions (0.15, 0.3, 0.6, 0.9, 1.2, and 1.5 mM) were used for the calibration curve. The FRAP value represents the corresponding concentration of FeSO4 solutions (mM FeSO4). The regression equation from the standard curve was used to calculate the equivalent concentration 1 (EC1) of each sample. EC1 is defined as the concentration of the test sample with an absorbance equivalent to that of 1.0 mmol/L of FeSO4 solution, determined by its calibration curve.

[3] = test system: fluorescent AGEs (human serum albumin glycated with D-fructose and glucose); experiment: Non-enzymatic glycation of HSA, determination of fluorescent AGEs; type: biochemical; settings: for The inhibition rate of fluorescent AGE 360/453 nm (%): single replicate
Protocol: The anti-glycative ability of samples were assessed by measuring the amounts of fluorescent AGEs. 100 μL human serum albumin (4 mg/ml HSA) was glycated with 100 μL D-fructose (0.05 mol/L) and 100 μL glucose (0.05 mol/L) in the presence of samples in potassium phosphate buffer (0.2 mol/L, pH7.4, 0.06% NaN3) and incubated at 50° C. for […]. The incubated solutions were then used for the following assays. Rutin was the positive control.
The fluorescence intensity of the incubated solutions under the λex/λem=360/453 nm was recorded on microplate reader. The inhibition rate of fluorescent AGEs was calculated by the following equation: […]
where A1 is the fluorescence intensity of glycation system without samples; A2 is the fluorescence intensity of glycation system without HSA and samples; A3 is the fluorescence intensity of glycation system with HSA, sugar and samples; and A4 is the fluorescence intensity of glycation system without HSA.

COX-2 = target: T1, COX-2 (Homo sapiens, UniProt P35354); experiment: Anti-COX-2 assay (COX-2 Inhibitor Screening Kit); type: biochemical
T1 construct: purchased Beyotime S0168
T1 sequence (P35354 18-604): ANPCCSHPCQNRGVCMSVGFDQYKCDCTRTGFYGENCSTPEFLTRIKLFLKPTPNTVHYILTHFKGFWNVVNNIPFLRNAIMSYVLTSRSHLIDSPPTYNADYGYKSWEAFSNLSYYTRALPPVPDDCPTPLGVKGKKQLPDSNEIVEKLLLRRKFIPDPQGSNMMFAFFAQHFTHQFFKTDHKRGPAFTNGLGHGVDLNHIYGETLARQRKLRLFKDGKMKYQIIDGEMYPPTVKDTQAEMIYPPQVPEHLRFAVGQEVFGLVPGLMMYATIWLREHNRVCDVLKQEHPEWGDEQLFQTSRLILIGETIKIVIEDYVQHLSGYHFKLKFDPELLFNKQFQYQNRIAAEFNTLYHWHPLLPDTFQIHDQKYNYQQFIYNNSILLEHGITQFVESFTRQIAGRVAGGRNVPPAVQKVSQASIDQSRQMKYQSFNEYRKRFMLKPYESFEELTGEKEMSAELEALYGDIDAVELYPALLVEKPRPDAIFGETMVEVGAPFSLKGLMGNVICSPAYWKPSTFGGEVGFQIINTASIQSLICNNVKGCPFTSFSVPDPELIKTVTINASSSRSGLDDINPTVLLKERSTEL
Protocol: Anti-inflammatory activity was assessed by measuring COX-2 enzymatic inhibition on the basis of a described method by using the COX-2 Inhibitor Screening Kit (Beyotime, No. S0168). Celecoxib, a COX-2 inhibitor, was used as a positive control.

DPPH· scavenging assay = type: biochemical
[4] = Online UPLC-PDA-MS-ABTS·+ scavenging (post-column derivatisation); type: biochemical; settings: online profiling of DOF extract
Protocol: Online identification of antioxidant components of DOF extract was performed using a UPLC system (Milford, MA, USA) consisting of a Waters photodiode array detector and a Waters postcolumn derivatisation system supplying fresh ABTS solution (UPLC-PDA-QDa-ABTS). […] The detection wavelengths were set at 280 and 734 nm, and the injection volume of the sample was 10 μl.
To detect radical scavengers, the UPLC system was coupled with a Waters pump, which supplied freshly prepared ABTS·+ solution into a reaction coil (15 m, 0.25 mm ID) with a flow rate of 0.2 ml/min at 37° C. Negative peaks were recorded based on a decrease of absorbance at 729 nm after the reaction of individual compounds with the ABTS·+ radical. For preliminary identification of compounds, a Waters Acquity QDa mass detector in negative ionisation mode was connected in series to PDA with the following parameters: electrospray ion source; cone voltage, 15 V; atomiser, N2; and scanning range, 100-800 m/z.

type III collagen = experiment: Collagen type III in HDFs by immunofluorescence; type: cell-based, human; settings: positive drug, VC 200 μg/ml, 48 h, IF
Protocol: (§1) HDFs were cultured in DMEM with 10% (v/v) FBS and 1% PS at 37° C. in a humidified 5% CO2 incubator. Cells were subcultured using pancreatin solution after reaching confluence. All experiments were performed between the third and eighth passages.
(§2) The synthesis of collagen types I and III was detected using IF and ELISA. HDFs were digested and seeded in a 24-well culture plate on slides at a density of 50,000 cells/well in a complete medium. After reaching 80% confluency, cells were starved with the medium in the absence of serum for 16 h. Cells were then treated with positive controls or active samples (prepared in medium without serum) for an additional 48 h. For analysis and visualisation of types I and III collagens, the supernatants and remaining cell slides were both collected and analysed using ELISA kits and the IF staining method, respectively.
(§3) Collected supernatants were centrifuged at 10,000 rpm for 10 min and used for types I and III collagen ELISA, according to the manufacturer's protocol. The remaining cell slides were washed once with PBS and fixed in polyformaldehyde overnight at 4° C. Subsequently, the slides were treated with 0.5% Triton-X100 for 5 min. After washing, cells were blocked with 1% BSA at room temperature for 1 h. […] ImageJ software was used to quantify collagen expression from different images randomly selected in each group.

type I collagen [5] = experiment: Extracellular collagen type I of HDFs by ELISA; type: cell-based, human; settings: VC, 48 h, culture medium
Protocol: as §1, §2, §3

type I collagen [6] = experiment: Collagen type I in HDFs by immunofluorescence; type: cell-based, human; settings: positive drug, VC 200 μg/ml, 48 h, IF
Protocol: as §1, §2, §3

C[C@@H]1O[C@@H](OC[C@H]2O[C@@H](Oc3c(-c4ccc(O)c(O)c4)oc4cc(O)cc(O)c4c3=O)[C@H](O)[C@@H](O)[C@@H]2O)[C@H](O)[C@H](O)[C@H]1O [Compound 24, Rutin]
IC50 [1]: 222 ± 13.5 µM
antioxidant ability by FRAP (in words) [2]: great antioxidant potency
FRAP EC1 ([2]; Table 11, mean ± SD, n = 3): 205 µM
antioxidant ability by FRAP (in words) ([2]; listed as rutin): selective and significant antioxidant abilities
Average % inhibition ([3]; 3.125 μg/ml): 2.02%
The inhibition rate of fluorescent AGE 360/453 nm (%) ([3]; 3.125 μg/ml): 2.34% and −3.34% and 7.07%
Average % inhibition ([3]; 6.25 μg/ml): 22.00%
The inhibition rate of fluorescent AGE 360/453 nm (%) ([3]; 6.25 μg/ml): 18.13% and 25.69% and 22.17%
Average % inhibition ([3]; 12.5 μg/ml): 41.15%
The inhibition rate of fluorescent AGE 360/453 nm (%) ([3]; 12.5 μg/ml): 35.84% and 42.05% and 45.57%
Average % inhibition ([3]; 25 μg/ml): 61.91%
The inhibition rate of fluorescent AGE 360/453 nm (%) ([3]; 25 μg/ml): 55.85% and 64.92% and 64.97%
Average % inhibition ([3]; 50 μg/ml): 75.80%
The inhibition rate of fluorescent AGE 360/453 nm (%) ([3]; 50 μg/ml): 74.72% and 79.59% and 73.08%
Average % inhibition ([3]; 100 μg/ml): 81.90%
The inhibition rate of fluorescent AGE 360/453 nm (%) ([3]; 100 μg/ml): 81.88% and 81.51% and 82.32%
Average % inhibition ([3]; 200 μg/ml): 85.69%
The inhibition rate of fluorescent AGE 360/453 nm (%) ([3]; 200 μg/ml): 84.54% and 85.94% and 86.58%
Average % inhibition ([3]; 400 μg/ml): 91.19%
The inhibition rate of fluorescent AGE 360/453 nm (%) ([3]; 400 μg/ml): 90.91% and 91.13% and 91.53%
COX-2 inhibition (in words) (COX-2): great COX-2 inhibition; also recorded: outstanding COX-2 inhibitory effects
COX-2 inhibition (in words) (COX-2; listed as rutin): potent COX-2 inhibitory capacity
antioxidant ability by DPPH (in words) (DPPH· scavenging assay): great antioxidant potency
antioxidant ability by DPPH (in words) (DPPH· scavenging assay; listed as rutin): selective and significant antioxidant abilities
ABTS radical scavenging by size of negative peaks at 734 nm (in words) [4]: strongest ABTS radical scavengers

O=C1O[C@H]([C@@H](O)CO)C(O)=C1O [vitamin C]
Collagen type III expression, % of control (type III collagen): 125.90 % of control
increase of secreted collagen type I levels (type I collagen [5]): 21.94%
Collagen type I expression, % of control (type I collagen [6]): 190.20 % of control
